# What was measured:
# aging ASIC3+/+ mice [1] = assay: Insulin tolerance test (ITT) with ASIC3 blockers in aging mice; assay type: in vivo; conditions: salicylic acid 14 mg/kg or APETx2 0.23 mg/kg injected intraperitoneally with insulin 0.5 mU/g
# Experimental: (§1) ASIC3−/− mice were generated as described in Chen et al., Proc. Natl. Acad. Sci. USA 99, 8992-8997, 2002. Congenic 129 mice were derived from breeding ASIC3 chimera with female 129S2/SvPasCrl wild type mice. All mice were raised in a 12:12-h light-dark cycle at 25° C. and 40% to 70% humidity. All experiments involved use of female mice in different age groups. The animals were bred in a specific pathogen-free facility and cared for in accordance with the Guide for the Use of Laboratory Animals (National Academy Press, Washington D.C.). The experimental protocol was approved by the animal use committee of Academia Sinica.
# (§2) Mice of 9, 16, or 25 weeks old were tested for glucose tolerance (GTT) and those of 18 or 27 weeks old for insulin tolerance (ITT). For GTT, the mice fasted overnight then were injected with glucose intraperitoneally at 1.5 mg/g body weight. For ITT, the mice were given free access to food and injected with insulin intraperitoneally at 0.5 mU/g body weight. The glucose levels were measured in blood withdrawn from the tail vein. To study effects of ASIC3 blockers, salicylic acid (14 mg/kg) or APETx2 (0.23 mg/kg) were injected with glucose or insulin intraperitoneally.
# (§3) To test whether ASIC3 selective blockers could reverse age-dependent glucose intolerance and insulin resistance, we tested the effects of salicylic acid and APETx2 in the aging mouse groups. […]
# rodents = conditions: salicylate 120 mg/kg/day, continual treatment; cited from earlier work
# aging ASIC3+/+ mice [2] = assay: Glucose tolerance test (GTT) with ASIC3 blockers in aging mice; assay type: in vivo; conditions: salicylic acid 14 mg/kg or APETx2 0.23 mg/kg injected intraperitoneally with glucose 1.5 mg/g after overnight fast
# Experimental: as §1, §2, §3
# WAT-expressed ASIC3 = target: T1, WAT-expressed ASIC3 (Mus musculus, UniProt Q6X1Y6); assay: Whole-cell patch recording of acid-evoked currents in cultured SVF adipose cells; assay type: cell-based; conditions: pH 5.0 evoked currents, SVF adipose cells from mice 8 to 10 weeks old, voltage-clamp
# T1 construct: Whole cell recordings were made of primary culture adipose cells; endogenous in cells; host or cells: primary stromal-vascular fraction (SVF) adipose cells from periovarian white adipose tissue of female mice
# T1 sequence (Q6X1Y6 1-530): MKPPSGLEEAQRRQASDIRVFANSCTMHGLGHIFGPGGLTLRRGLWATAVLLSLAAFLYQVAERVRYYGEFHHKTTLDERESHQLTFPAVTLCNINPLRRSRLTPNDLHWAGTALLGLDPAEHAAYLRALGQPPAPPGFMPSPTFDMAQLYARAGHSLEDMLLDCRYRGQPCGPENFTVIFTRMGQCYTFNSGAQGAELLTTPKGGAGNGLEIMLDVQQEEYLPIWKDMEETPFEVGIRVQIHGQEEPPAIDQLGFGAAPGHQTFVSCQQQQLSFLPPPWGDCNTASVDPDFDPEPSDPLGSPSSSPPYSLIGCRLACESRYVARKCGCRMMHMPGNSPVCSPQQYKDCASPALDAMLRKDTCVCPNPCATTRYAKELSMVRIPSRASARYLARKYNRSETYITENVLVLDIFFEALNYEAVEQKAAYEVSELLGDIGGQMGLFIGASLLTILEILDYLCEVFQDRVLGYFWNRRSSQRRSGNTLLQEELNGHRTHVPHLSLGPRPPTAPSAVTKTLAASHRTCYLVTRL
# Experimental: Fat pads of periovarian white adipose tissue (WAT) were isolated from female mice. One gram of the isolated fat pad was digested with 2 mg/ml of collagenase type VIII (Sigma) in 4 ml Dulbecco's modified Eagle's medium (DMEM) at 37° C. for 1 hour. Then, the digested tissues were centrifuged at 200×g for 5 minutes at 4° C. The supernatant, which contains mature adipocytes, was collected for RNA isolation. The cell pellet, the stromal-vascular fraction (SVF), consisted of mesenchynal cells (adipoblasts) and immature adipocytes (adipocyte precursors and postadipocytes) (Van, The adipocyte precusor cell. In: New perspectives in adipose tissue:structure, function, and development. Butterworths, Borough Green, England, chapt. 15, 353-382, 1985). The SVFs were collected for RNA isolation or re-suspended for cell culture in DMEM containing 10% fetal calf serum and antibiotics. SVF cells were plated at a concentration of 10^5 cells per glass cover slide (12 mm in diameter) and maintained at 37° C. in 5% humidified carbon dioxide. The cultured cells then underwent whole-cell patch recording in 5 days. […]
# To determine whether WAT-expressed ASIC3 is functional, we applied whole-cell patch recording to examine the acid-evoked currents in cultured SVF cells isolated from mice 8 to 10 weeks old. […]
# IKKβ = target: T2, IKKβ (Mus musculus, UniProt O88351); conditions: salicylate 120 mg/kg/day, continual treatment, rodents; cited from earlier work
# T2 construct: host or cells: rodents (in vivo)
# T2 sequence (O88351 1-757): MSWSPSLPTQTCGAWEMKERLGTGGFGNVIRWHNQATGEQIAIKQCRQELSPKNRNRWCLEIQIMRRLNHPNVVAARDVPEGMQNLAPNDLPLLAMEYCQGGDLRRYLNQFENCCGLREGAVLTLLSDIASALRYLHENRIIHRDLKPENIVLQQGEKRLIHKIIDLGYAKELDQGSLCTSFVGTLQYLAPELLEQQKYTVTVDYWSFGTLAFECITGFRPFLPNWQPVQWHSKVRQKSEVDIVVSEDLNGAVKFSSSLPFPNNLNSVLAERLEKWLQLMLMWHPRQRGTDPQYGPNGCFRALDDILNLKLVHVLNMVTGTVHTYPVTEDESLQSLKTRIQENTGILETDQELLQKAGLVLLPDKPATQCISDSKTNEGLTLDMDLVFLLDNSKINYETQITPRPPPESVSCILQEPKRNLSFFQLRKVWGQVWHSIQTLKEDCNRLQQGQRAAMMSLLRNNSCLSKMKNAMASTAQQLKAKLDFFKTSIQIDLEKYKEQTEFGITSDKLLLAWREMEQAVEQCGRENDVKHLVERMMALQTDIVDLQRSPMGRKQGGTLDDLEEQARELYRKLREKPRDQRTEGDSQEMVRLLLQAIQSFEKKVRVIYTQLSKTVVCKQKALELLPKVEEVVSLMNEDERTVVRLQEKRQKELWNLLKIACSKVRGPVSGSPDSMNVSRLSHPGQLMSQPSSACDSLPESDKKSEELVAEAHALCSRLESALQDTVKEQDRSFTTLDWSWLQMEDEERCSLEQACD
compound,measurement,setting,value
O=C(O)c1ccccc1O [salicylic acid],effect on insulin tolerance test / insulin sensitivity (ITT),aging ASIC3+/+ mice [1],not affect insulin tolerance test
same,effect on obesity- and diet-induced insulin resistance,rodents,reversed obesity- and diet-induced insulin resistance
same,effect on age-dependent glucose tolerance (GTT),aging ASIC3+/+ mice [2],reverse in part the age-dependent effect of glucose tolerance
same,sensitivity of acid-induced inward currents to blocker,WAT-expressed ASIC3,sensitive
same,effect on IKKβ activity,IKKβ,disrupted IKKβ activity
APETx2,effect on insulin tolerance test / insulin sensitivity (ITT),aging ASIC3+/+ mice [1],significantly enhance the insulin sensitivity
same,effect on age-dependent glucose tolerance (GTT),aging ASIC3+/+ mice [2],effectively reverse the age-dependent effect of glucose tolerance
same,sensitivity of acid-induced inward currents to blocker,WAT-expressed ASIC3,sensitive

# Source: patent US7838005B2, “Treatment of insulin resistance by administering an acid-sensing ion channel 3 inhibitor” (priority 2007, dated 2010)
